Results: patent publication US20210087279A1, “REGULATABLE CHIMERIC ANTIGEN RECEPTOR” (Novartis AG, priority 2014, published 2021)

Legend:
Assay type in all cases: cell-based
[1] = tested on: luciferase-expressing Nalm6 (human pre-B ALL) cell line; assay: Killing assay with RCAR-expressing primary T cells; details: effector:target 1:1; 20 hours
Protocol: The ability for RCAR T cells (RCAR T cell generation described above) to target and kill tumor cells was assessed in vitro. A luciferase-based assay was used, with tumor cell lines expressing luciferase reporters. Target cells (tumor cells) were plated at 25,000 cells/well. RCAR T cells, as well as standard CAR-expressing T cells and T cells expressing no CARs were added at the effector:target ratio 1:1 in duplicates. Additionally, RAD001 was added in seven 5-fold dilution steps, starting at 50 nM. One duplicate received pure medium, no RAD001. The cells were cultured for 20 hours, after which the luminescence of each well was detected to determine the percentage of target cells killed (BrightGlo, Promega protocol). Specific killing (%)=[…]. The luciferase-expressing Nalm6 (human pre-B ALL) cell line was used as the target cell.

[2] = tested on: NFAT activity in Jurkat cells with NFAT-LUC reporter (JNL); assay: Activation of RCAR half switches (intracellular FKBP/FRB) by RAD001; details: both half switches (CD28 or 4-1BB); 0-10 nM tested
Protocol: In this example, the activation of a RCAR half switch was evaluated in the presence of the dimerization molecule RAD001. Two RCAR constructs were tested where the dimerization switch is an intracellular FKBP/FRB dimerization switch, and the switch domains are located in both orientations with respect to the antigen binding member and the intracellular member. For example, the antigen binding member comprises a scFV domain, a transmembrane domain, an intracellular switch domain, and an intracellular costimulatory signaling domain; and the intracellular signaling member comprises an […] switch domain, a transmembrane domain, and an intracellular primary signaling domain, e.g., CD3zeta (FIG. 36A).
Jurkat cells with NFAT-LUC reporter (JNL) were grown to the density of 0.5×10^6/ml in Jurkat cell growth media with puromycin at 0.5 μg/ml. For each transfection 2.5×10^6 cells were spin down at 100 g for 10 minutes. Two μg of DNA per construct were used per transfection. […]
After one hour, RAD001 compound was delivered at 50 nM when testing RCARs with different costimulatory signaling domains (FIGS. 36A-B), or various concentrations: 0 nM, 0.01 nM, 0.03 nM, 0.1 nM, 0.3 nM, 1 nM, 3 nM, and 10 nM (FIGS. 37A-B). […] The samples were incubated for 5 min at 37° C. and then luminescence is measured using Envision plate reader.

[3] = tested on: reporter under NFAT control in JNL cells; assay: Dimerization molecule dose response, single vector construct 143775 in JNL cells, CD19 target; details: nM to sub-nM doses
Text: The constructs and viral particles were made and tested essentially as described in Example 11. Viral particles were introduced into JNL cells and evaluated for activity essentially as described in Example 1 except that the target was CD19 (as opposed to EGFRviii).
Construct 143775 was introduced into cells and the affect of dimerization molecule concentration on activation evaluated essentially as described in Example 14.

[4] = tested on: NFAT activity in Jurkat cells with NFAT-LUC reporter (JNL); assay: Activation of RCAR with extracellular FKBP/FRB switch by RAD001; details: for RAD001 dose at which NFAT activity peaked: 0-50 nM tested
Protocol: In this example, the activation of RCAR with an extracellular switch was evaluated in the presence of the dimerization molecule RAD001. Four RCARs were tested: two half switch constructs, e.g., with the dimerization switch in both orientations (FIG. 34A), and two full switch constructs, e.g., with the dimerization switch in both orientations (FIG. 34B), where the dimerization switch is an extracellular FKBP/FRB dimerization, as depicted in FIGS. 34A and 34B. In the half-switch constructs, the antigen binding member comprises a scFV domain, an extracellular switch domain, a transmembrane domain, an intracellular costimulatory signaling domain 4-1BB, and the intracellular signaling member comprises an extracellular switch domain, a transmembrane domain, and an intracellular primary signaling domain, CD3zeta (FIG. 34A). In the full-switch constructs, the antigen binding member comprises a scFv domain, an extracellular switch domain, and a transmembrane domain, and the intracellular signaling member comprises an extracellular switch domain, a transmembrane domain, an intracellular costimulatory signaling domain, 4-1BB, and an intracellular primary signaling domain, CD3zeta (FIG. 34B).
The RCAR constructs were expressed in a Jurkat reporter cell line. Jurkat cells with NFAT-LUC reporter (JNL) were grown to the density of 0.5×10^6/ml in Jurkat cell growth media with puromycin at 0.5 μg/ml. For each transfection 2.5×10^6 cells were spin down at 100 g for 10 minutes. Two μg of DNA per RCAR construct were used per transfection. Amaxa Nucleofector solution V and supplement I was mixed and 100 μl was added into the tube with DNA construct. The mixture was then added to the cells and transferred to the electroporation cuvette. Electroporation was done under setting X-001 using Amaxa Nucleofector II Device. […]
After one hour, RAD001 compound was applied at various concentrations: 0 nM, 0.01 nM, 0.03 nM, 0.1 nM, 0.3 nM, 1 nM, 5 nM, and 50 nM. […] The samples were incubated for 5 min at 37° C. and then luminescence was measured using Envision plate reader.

CO[C@H]1C[C@@H]2CC[C@@H](C)[C@@](O)(O2)C(=O)C(=O)N2CCCC[C@H]2C(=O)O[C@H]([C@H](C)C[C@@H]2CC[C@@H](OCCO)[C@H](OC)C2)CC(=O)[C@H](C)/C=C(\C)[C@@H](O)[C@@H](OC)C(=O)[C@H](C)C[C@H](C)/C=C/C=C/C=C/1C [RAD001, (1R,9S,12S,15R,16E,18R,19R,21R,23S,24E,26E,28E,30S,32S,35R)-1,18-dihydroxy-12-{(1R)-2-[(1S,3R,4R)-4-(2-hydroxyethoxy)-3-methoxycyclohexyl]-1-methylethyl}-19,30-dimethoxy-15,17,21,23,29,35-hexamethyl-11,36-dioxa-4-aza-tricyclo[30.3.1.04,9]hexatriaconta-16,24,26,28-tetraene-2,3,10,14,20-pentaone]
RAD001 concentration at maximal killing by RCAR-expressing T cells [1]: around 1 nM
RAD001 concentration at which NFAT activity peaked [2]: 1 nM
activation [3]: effective at a broad range of concentrations
RAD001 dose at which NFAT activity peaked ([4]; extracellular RCAR full switches): 1 nM
inhibition of NFAT activity at higher dosages ([4]; extracellular half switch 1, 5 nM and 50 nM): no inhibition of activity
RAD001 dose at which NFAT activity peaked ([4]; extracellular half switch 2): 1 nM
